Measured values published in patent US20100029507A1, “THE BIOCHIP FOR THE DETECTION OF PHOSPHORYLATION AND THE DETECTION METHOD USING THE SAME” (priority 2006, published 2010).
Residues, ends and D or L forms follow the SMILES beside them.

Target: cAMP-dependent protein kinase (Homo sapiens, UniProt P17612)
Assay: phosphorylation of chip-fixed substrate by kinase with [γ-32P]ATP, X-ray film detection
Format: biochemical
Conditions: substrate spotted on aldehyde coated slide glass, 10 units cAMP-dependent protein kinase, reaction one hour, sensitized 12~24 hours
Protocol: First, kemptide (Promega, Madison, Wis.) or malic enzyme-kemptide fusion protein was fixed on a slid glass as a substrate. Particularly, kemptide was dissolved in kemptide solution (10% glycerol, 60% PBS, pH 7.5) at the concentration of 0.1 mg/ml and this substrate solution was integrated on the aldehyde coated slid glass by using a microarrayer [Affymetrix 417 Arrayer (Takara Shuzo, Japan)] with leaving 300 μm distance between spots (2500/1 cm^2). The malic enzyme-kemptide prepared in Example 1 was also integrated on the slid glass with leaving 300 μm distance between spots (2500/1 cm^2). At this time, the size of each spot was 50 μm. The biochip integrated with substrate as described above was fixed in a 30° C. humid chamber for one hour. The biochip prepared in Example 2 was washed three times with washing buffer (2 mM KH2PO4, 1 mM Na2HPO4, 200 mM NaCl, 3 mM KCl, pH 7.5) and then reaction between the substrate and kinase was induced on the chip. Particularly, the chip was washed with kinase buffer (50 mM Tris-HCl, 10 mM MgCl2, pH 7.5) once and then pre-incubation was performed in the kinase buffer supplemented with 100 μM of ATP. […] The reacted biochip was sensitized on X-ray film for 12˜24 hours and then phosphorylation by kinase was measured.

CC(C)C[C@H](NC(=O)[C@H](CO)NC(=O)[C@H](C)NC(=O)[C@H](CCCNC(=N)N)NC(=O)[C@H](CCCNC(=N)N)NC(=O)[C@@H](N)CC(C)C)C(=O)NCC(=O)O [kemptide] (H-LRRASLG-OH)
phosphorylation by kinase (spot signal on X-ray film): spot signals were clearly confirmed
